Test [1] has as its target T1, CDKs and other kinases (Homo sapiens, UniProt P50613).
T1 construct: other: CDK7H; residual activity (%) at 10 μM CDK7H; compound at 10 μM
The test is described as follows: Radiometric kinase assay (Eurofins Pharma Discovery or Reaction Biology Corporation Kinase Profiler). The class given is biochemical. To be noted: CDK7H; for remaining activity at 10 µM: compound at 10 μM, read-out: residual activity (%) at 10 μM CDK7H; for Ki: read-out: CDK inhibition, Ki (μM) CDK7H. The gist of the method:
(§1)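 Other CDKs and further kinases were profiled externally by radiometric assay. In-house ADP Glo assays covered CDK4/D1 and CDK6/D3 (RB-CTF substrate, pH 7.5 Tris buffer with MgCl2, DTT, BSA) and CDK9/T1 (RBER-IRStide substrate), 40 min at 37° C.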

Test [2] deals with T2, CDKs and other kinases (Homo sapiens, UniProt P24941).
T2 construct: other: CDK2A; residual activity (%) at 10 μM CDK2A; compound at 10 μM
Described as above. The class given is biochemical. To be noted: CDK2A; for remaining activity at 10 µM: compound at 10 μM, read-out: residual activity (%) at 10 μM CDK2A; for Ki: read-out: CDK inhibition, Ki (μM) CDK2A. The gist of the method:
as §1

The target of test [3] is T3, CDKs and other kinases (Homo sapiens, UniProt P06493).
T3 construct: other: CDK1B; residual activity (%) at 10 μM CDK1B; compound at 10 μM
Described as above. The class given is biochemical. To be noted: CDK1B; for remaining activity at 10 µM: compound at 10 μM, read-out: residual activity (%) at 10 μM CDK1B; for Ki: read-out: CDK inhibition, Ki (μM) CDK1B. The method in brief: as §1

Test [4] has as its target CDK4/D1 (Homo sapiens, UniProt P11802). The test is described as follows: ADP Glo Kinase assay CDK4/D1. The class given is biochemical. The following applies: CDK4D1; for remaining activity at 10 µM: compound at 10 μM, read-out: residual activity (%) at 10 μM CDK4D1. The gist of the method:
(§2)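 Luminescent ADP detection measured activity after a 40 min, 37° C ATP-initiated reaction, using RB-CTF for CDK4/D1 and CDK6/D3 and RBER-IRStide for CDK9/T1. Controls lacked or contained kinase. Values: IC50 by four-parameter nonlinear regression, Ki from ATP Km.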

Test [5] deals with CDK9/T1 (Homo sapiens, UniProt P50750). In words: ADP Glo Kinase assay CDK9/T1. The class given is biochemical. The following applies: CDK9T1; read-out: CDK inhibition, Ki (μM) CDK9T1. The gist of the method:
as §2
(In ADP-Glo the light output rises with the ADP produced.)

Test [6] deals with CDK6/D3 (Homo sapiens, UniProt Q00534). In words: ADP Glo Kinase assay CDK6/D3. The class given is biochemical. The following applies: CDK6D3; compound at 10 μM; read-out: residual activity (%) at 10 μM CDK6D3. The method in brief: as §2
Test [7] relates to leukemia cell lines. The test is described as follows: Resazurin cell viability assay on leukemia cell lines (72 h growth inhibition, GI50). The class given is cell-based. To be noted: Homo sapiens, MV4-11 cells. The gist of the method: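 Viability is measured by MTT in solid tumour cells and by resazurin in leukaemia cells. Reported values are GI50s calculated with non-linear regression analysis.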

Where only a bound is given, the exact number is not on record here.

A word on the Ki: it is the dissociation constant of the complex between target and ligand, obtained from inhibition or displacement. For orientation: GI50 means the concentration that inhibits growth by half.

T3 sequence (P06493 whole entry): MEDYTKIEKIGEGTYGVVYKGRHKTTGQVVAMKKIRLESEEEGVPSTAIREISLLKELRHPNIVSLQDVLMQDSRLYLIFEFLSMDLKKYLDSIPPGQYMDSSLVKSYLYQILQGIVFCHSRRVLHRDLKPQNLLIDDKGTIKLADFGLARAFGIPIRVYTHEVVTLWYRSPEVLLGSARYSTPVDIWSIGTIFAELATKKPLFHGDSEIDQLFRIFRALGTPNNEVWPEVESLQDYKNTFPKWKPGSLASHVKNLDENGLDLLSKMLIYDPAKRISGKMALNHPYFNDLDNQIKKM
T1 sequence (P50613 whole entry): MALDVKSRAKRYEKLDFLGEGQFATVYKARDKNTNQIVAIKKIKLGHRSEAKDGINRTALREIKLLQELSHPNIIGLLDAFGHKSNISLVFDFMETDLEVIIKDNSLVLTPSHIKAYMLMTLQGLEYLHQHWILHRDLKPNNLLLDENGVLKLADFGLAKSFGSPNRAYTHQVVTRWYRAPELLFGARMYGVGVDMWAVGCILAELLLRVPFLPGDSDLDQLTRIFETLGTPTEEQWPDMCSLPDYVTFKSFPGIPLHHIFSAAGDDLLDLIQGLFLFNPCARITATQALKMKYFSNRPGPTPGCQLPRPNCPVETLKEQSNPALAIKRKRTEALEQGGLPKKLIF
Sequence of CDK4/D1 (P11802 whole entry): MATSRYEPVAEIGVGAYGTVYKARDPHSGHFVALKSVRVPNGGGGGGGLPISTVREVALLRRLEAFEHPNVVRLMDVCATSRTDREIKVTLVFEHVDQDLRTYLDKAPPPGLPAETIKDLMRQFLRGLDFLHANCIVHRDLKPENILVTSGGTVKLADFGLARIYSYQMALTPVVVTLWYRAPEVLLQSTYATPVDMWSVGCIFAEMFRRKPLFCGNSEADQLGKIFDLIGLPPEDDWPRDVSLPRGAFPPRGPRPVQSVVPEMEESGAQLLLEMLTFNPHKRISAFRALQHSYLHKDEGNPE
Sequence of CDK4/D1 (P24385 whole entry partner): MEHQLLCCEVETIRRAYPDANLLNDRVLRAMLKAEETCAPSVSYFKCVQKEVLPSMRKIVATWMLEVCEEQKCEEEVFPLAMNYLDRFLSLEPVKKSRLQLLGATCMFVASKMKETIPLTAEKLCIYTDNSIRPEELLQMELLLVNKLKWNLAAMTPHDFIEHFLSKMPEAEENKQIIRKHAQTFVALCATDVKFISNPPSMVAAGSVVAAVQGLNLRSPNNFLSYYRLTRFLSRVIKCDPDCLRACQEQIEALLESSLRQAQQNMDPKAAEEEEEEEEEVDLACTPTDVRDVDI
Sequence of CDK6/D3 (Q00534 whole entry): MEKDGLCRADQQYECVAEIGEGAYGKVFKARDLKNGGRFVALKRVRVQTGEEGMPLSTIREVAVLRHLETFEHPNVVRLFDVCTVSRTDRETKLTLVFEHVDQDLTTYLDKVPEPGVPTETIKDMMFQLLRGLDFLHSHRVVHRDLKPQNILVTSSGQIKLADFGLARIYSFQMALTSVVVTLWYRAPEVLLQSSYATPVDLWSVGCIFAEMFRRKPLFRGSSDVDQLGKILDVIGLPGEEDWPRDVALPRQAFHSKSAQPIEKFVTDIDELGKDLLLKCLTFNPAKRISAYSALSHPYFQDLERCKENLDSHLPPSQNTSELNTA
Sequence of CDK6/D3 (P30281 whole entry partner): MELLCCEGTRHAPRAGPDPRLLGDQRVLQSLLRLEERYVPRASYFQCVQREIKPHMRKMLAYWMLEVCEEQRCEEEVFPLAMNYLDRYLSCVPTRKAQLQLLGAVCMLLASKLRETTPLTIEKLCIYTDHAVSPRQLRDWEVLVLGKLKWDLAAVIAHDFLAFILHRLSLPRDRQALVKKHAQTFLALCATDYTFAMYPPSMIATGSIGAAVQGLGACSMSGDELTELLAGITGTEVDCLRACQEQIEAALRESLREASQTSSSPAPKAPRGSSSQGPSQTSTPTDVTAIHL
Sequence of CDK9/T1 (P50750 whole entry): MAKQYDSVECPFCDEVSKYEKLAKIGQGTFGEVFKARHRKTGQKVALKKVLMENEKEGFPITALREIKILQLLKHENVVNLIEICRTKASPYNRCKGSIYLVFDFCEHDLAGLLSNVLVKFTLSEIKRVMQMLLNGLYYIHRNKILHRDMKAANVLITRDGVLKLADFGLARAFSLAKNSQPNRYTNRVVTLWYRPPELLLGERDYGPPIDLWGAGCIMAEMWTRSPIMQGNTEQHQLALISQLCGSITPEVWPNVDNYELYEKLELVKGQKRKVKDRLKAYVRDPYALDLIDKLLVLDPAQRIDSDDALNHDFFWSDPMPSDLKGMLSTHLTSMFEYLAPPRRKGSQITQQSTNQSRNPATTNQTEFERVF
Sequence of CDK9/T1 (O60563 whole entry partner): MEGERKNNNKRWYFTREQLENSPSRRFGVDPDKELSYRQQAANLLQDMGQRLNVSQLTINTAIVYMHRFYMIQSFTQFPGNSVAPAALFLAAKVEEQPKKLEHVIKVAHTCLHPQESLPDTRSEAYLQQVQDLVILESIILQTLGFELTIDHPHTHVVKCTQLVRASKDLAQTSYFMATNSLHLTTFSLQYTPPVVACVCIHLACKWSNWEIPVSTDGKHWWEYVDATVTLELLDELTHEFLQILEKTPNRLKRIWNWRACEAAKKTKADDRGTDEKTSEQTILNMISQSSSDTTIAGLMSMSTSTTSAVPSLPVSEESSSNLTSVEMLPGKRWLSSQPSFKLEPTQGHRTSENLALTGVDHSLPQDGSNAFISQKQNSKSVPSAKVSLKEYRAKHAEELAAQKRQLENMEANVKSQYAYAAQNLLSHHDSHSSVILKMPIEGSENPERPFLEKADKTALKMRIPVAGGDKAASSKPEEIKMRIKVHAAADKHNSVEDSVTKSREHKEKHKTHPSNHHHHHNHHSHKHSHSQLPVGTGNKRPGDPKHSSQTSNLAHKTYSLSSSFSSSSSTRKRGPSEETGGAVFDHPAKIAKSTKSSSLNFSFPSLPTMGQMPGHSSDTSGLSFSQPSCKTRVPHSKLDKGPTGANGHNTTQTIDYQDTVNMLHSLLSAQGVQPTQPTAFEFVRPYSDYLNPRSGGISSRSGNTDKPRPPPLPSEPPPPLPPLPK

`Cc1cnc(NC2CCOCC2)nc1-c1cnc2ccc(Nc3cncnc3)cn12` [Compound 104, 3-(5-Methyl-2-((tetrahydro-2H-pyran-4-yl)amino)pyrimidin-4-yl)-N-(pyrimidin-5-yl)imidazo[1,2-a]pyridin-6-amine]: the remaining activity at 10 µM in test [1] was found to be 57%; in test [2], 2%; in test [3], 4%; in test [4] it was 70%; in test [6], 73%. Moreover, the Ki in test [5] worked out at 0.155 µM. In addition, in test [7], the GI50 came out at 4.76 ± 1.16 µM.
Turning to `Cc1cnc(N[C@H]2CC[C@H](O)CC2)nc1-c1cnc2ccc(-c3ccccc3)cn12` [Compound 105, (1r,4r)-4-((5-Methyl-4-(6-phenylimidazo[1,2-a]pyridin-3-yl)pyrimidin-2-yl)amino)cyclohexan-1-ol], the remaining activity at 10 µM in test [1] was determined as 15%; in test [2] it was 3%; in test [3] it was 7%; in test [4], 93%; in test [6], 94%. Moreover, the Ki in test [5] was 0.188 µM. Besides, in test [7], the GI50 amounted to 0.748 ± 0.063 µM.
In the case of `Cc1cnc(N[C@H]2CC[C@H](O)CC2)nc1-c1cnc2ccc(Nc3cccnc3)cn12` [Compound 106, (1r,4r)-4-((5-Methyl-4-(6-(pyridin-3-ylamino)imidazo [1,2-a]pyridin-3-yl)pyrimidin-2-yl)amino)cyclohexan-1-ol], the remaining activity at 10 µM in test [1] was 25%; in test [2], 2%; in test [3] it was 5%; in test [4] it was 43%; in test [6] it was 71%. Also, the Ki in test [5] turned out to be 0.042 µM. The GI50 in test [7] stood at 0.851 ± 0.048 µM.
As for `Cc1cnc(N[C@H]2CC[C@H](O)CC2)nc1-c1cnc2ccccn12` [Compound 107, (1r,4r)-4-((4-(Imidazo[1,2-a]pyridin-3-yl)-5-methylpyrimidin-2-yl)amino)cyclohexan-1-ol], the remaining activity at 10 µM was determined as 34% in test [1]; 5% in test [2]; 47% in test [3]; 37% in test [4]; 54% in test [6]. For the same molecule, the Ki in test [5] was determined as 0.161 µM. Also, the GI50 in test [7] worked out at 1.42 ± 0.652 µM.
As to `Cc1cnc(N[C@H]2CC[C@H](O)CC2)nc1-c1cnc2ccc(Nc3cncnc3)cn12` [Compound 108, (1r,4r)-4-((5-Methyl-4-(6-(pyrimidin-5-ylamino)imidazo [1,2-a]pyridin-3-yl)pyrimidin-2-yl)amino)cyclohexan-1-ol], the Ki in test [1] was 4.76 µM; in test [2], 0.035 µM; in test [3], 0.16 µM; in test [5], 0.018 µM. Also, the figures for the remaining activity at 10 µM in test [4] and in test [6] were 70% and 68%, respectively. In test [7], this molecule returned a 50% growth inhibitory concentration (GI50) greater than 10 µM.
As to `Cc1cnc(NC2CCC(NCC(F)(F)F)CC2)nc1-c1cnc2ccc(Nc3cncnc3)cn12` (stereo not shown) [Compound 112, N^1-(5-Methyl-4-(6-(pyrimidin-5-ylamino)imidazo[1,2-a]pyridin-3-yl)pyrimidin-2-yl)-N^4-(2,2,2-trifluoroethyl) cyclohexane-1,4-diamine], the Ki in test [1] is greater than 5 µM; in test [2] it was 0.49 µM; in test [3], 1.73 µM; in test [4] (read-out: CDK inhibition, Ki (μM) CDK4D1), greater than 5 µM; in test [5], 0.205 µM. The remaining activity at 10 µM in test [6] came to 45%. Moreover, the GI50 in test [7] worked out at 2.55 ± 1.7 µM.
Regarding `CC(=O)NC1CCC(Nc2ncc(C)c(-c3cnc4ccc(Nc5cncnc5)cn34)n2)CC1` (stereo not shown) [Compound 113, N-(4-((5-Methyl-4-(6-(pyrimidin-5-ylamino)imidazo [1,2-a]pyridin-3-yl)pyrimidin-2-yl)amino)cyclohexyl) acetamide], the Ki in test [1] came to 2.59 µM; in test [2], 0.45 µM; in test [3], 0.82 µM; in test [5], 1.01 µM. The remaining activity at 10 µM in test [4] was found to be 28%; in test [6], 39%. The molecule also returned a GI50 in test [7] greater than 10 µM.

The record behind these values is patent US11111245B2, “Derivatives of N-cycloalkyl/heterocycloalkyl-4-(imidazo[1,2-a]pyridine)pyrimidin-2-amine as therapeutic agents” (Aucentra Therapeutics Pty Ltd, priority 2017, dated 2021).
